The results in this text go back to US9868937B2, “Cell and gene based methods to improve cardiac function” (University of Washington, priority 2011, dated 2018).

“Also recorded” adds a separate entry of the source.

The experiment has as its system mouse aortic smooth muscle. The experiment in a line: Mouse aortic smooth muscle contraction in skinned muscle strips with dATP vs. ATP. It is filed as biochemical. The text has this:
dATP has no affect on mouse aortic smooth muscle force development. To begin studying potential systemic effects of elevated dATP, we collaborated with Dr. Frank Brozovich (Mayo Clinic) to determine if dATP affects mouse aortic smooth muscle contraction.

`Nc1ncnc2c1ncn2[C@H]1C[C@H](O)[C@@H](COP(=O)(O)OP(=O)(O)OP(=O)(O)O)O1` [dATP, 2 deoxy-ATP]: the “level of myosin light chain phosphorylation” value (control measurements (data not shown)) is recorded as “did not change”. Moreover, the “aortic smooth muscle contraction” value (dATP vs. ATP as the contractile substrate) is listed as “did not differ; also recorded: did not alter contraction”.
